The record followed here is patent US5532267A, “Amidinonaphthyl furancarboxylate derivatives and acid addition salts therof” (Torii & Co., Ltd., priority 1992, dated 1996).

One data set concerns the target T1, trypsin (Bos taurus, UniProt P00760).
T1 sequence (P00760 24-246): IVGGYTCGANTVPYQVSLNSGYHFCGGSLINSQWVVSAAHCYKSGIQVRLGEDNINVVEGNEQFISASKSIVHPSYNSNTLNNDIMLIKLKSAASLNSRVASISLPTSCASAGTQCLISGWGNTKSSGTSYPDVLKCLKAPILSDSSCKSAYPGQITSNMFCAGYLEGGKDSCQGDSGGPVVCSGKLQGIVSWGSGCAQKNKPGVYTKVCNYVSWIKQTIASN
Kind of data set: anti-trypsin activity, hydrolysis of TAME (tosylarginine methyl ester). It is filed as biochemical.

A further data set concerns the target T2, C1r (Homo sapiens, UniProt P00736).
T2 sequence (P00736 18-705): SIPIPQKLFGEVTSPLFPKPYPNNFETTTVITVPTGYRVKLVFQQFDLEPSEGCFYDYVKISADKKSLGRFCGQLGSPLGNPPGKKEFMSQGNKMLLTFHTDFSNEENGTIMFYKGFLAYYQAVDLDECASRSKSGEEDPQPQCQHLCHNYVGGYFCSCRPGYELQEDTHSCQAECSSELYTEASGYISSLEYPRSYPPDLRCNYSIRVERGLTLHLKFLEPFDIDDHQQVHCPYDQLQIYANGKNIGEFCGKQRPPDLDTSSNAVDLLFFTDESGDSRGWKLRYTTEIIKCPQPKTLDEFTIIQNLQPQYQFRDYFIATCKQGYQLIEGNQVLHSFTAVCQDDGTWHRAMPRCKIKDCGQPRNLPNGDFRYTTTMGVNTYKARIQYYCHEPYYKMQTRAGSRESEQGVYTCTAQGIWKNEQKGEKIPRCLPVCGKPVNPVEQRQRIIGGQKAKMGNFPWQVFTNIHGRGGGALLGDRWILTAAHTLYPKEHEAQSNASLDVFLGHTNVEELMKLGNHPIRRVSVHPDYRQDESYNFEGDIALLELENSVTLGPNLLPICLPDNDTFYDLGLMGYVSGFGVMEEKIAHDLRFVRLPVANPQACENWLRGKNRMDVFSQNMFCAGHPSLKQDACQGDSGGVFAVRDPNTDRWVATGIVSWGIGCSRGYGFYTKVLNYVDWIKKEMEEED
Kind of data set: anti-complement (anti-C1 esterase) activity, C1r hydrolysis of AAME (acetyl-arginine methyl ester). It is filed as biochemical.

In the next data set the target is T3, C1s (Homo sapiens, UniProt P09871).
T3 sequence (P09871 16-688): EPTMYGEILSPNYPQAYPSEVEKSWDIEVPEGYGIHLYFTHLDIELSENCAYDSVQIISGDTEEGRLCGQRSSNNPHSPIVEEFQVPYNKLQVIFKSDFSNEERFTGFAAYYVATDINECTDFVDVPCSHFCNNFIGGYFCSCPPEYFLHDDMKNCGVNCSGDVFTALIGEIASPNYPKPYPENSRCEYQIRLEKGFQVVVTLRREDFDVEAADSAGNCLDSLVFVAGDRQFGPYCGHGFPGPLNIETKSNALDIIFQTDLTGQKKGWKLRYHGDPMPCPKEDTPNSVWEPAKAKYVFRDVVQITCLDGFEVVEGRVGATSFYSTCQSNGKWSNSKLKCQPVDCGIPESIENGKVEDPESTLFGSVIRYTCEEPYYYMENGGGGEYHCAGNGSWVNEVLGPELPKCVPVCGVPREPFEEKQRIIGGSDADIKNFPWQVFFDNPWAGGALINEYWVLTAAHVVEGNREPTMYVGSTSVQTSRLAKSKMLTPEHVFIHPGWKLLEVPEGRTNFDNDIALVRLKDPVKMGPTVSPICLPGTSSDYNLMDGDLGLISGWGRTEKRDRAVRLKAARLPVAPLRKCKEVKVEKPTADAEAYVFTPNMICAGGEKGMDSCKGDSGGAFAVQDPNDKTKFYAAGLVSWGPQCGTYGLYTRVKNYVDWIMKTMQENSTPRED
Kind of data set: anti-complement (anti-C1 esterase) activity, C1s hydrolysis of ATEE (acetyltyrosine ethyl ester). Format: biochemical.

The next data set relates to adjuvant arthritis. In words: Effectiveness in treating adjuvant arthritis (Mycobacterium butyricum). Conditions: 60 mg/kg, oral, day -1 to day 13. It is filed as in vivo, rat. The method, then: Adjuvant arthritis is known as a representative model of autoimmune diseases and is a effective means of testing agents to treat human rheumatoid arthritis (Encyclopedia of Immunology, edited by I. M. Roitt, Academic Press, 1992; Otterness, I. G., et al., J. of Rheumatology (1991), volume 18, pages 505-511),
The method of experiment was as follows. A 0.6% Mycobacterium butyricum liquid paraffin suspension, 0.1 ml/animal, was administered to a rat at a subcutaneous site of left hind-limb sole to induce adjuvant arthritis. The present compound was orally administered (in the form of a suspension in water) consecutively from 1 day before the induction to 13 days after the induction. The efficacy of the present compound on adjuvant arthritis was evaluated by examining the swelling accompanied by red spots and subcutaneous knots at the fore-limb, hind-limb, tail, ear and periphery of eye with the lapse of days (on the 8th, 10th, 12th, 14th, 16th and 18th days after adjuvant administration), expressing the results in terms of scores according to the method of F. D. Wood et al. (Int. Arch. Allergy (1969), volume 35, pages 456-467), and calculating the percentage inhibition relative to the control group. Thus, the higher value of percentage inhibition indicates the higher effectiveness.

Data set [1] deals with Masugi's nephritis. Kind of data set: Effectiveness in treating Masugi's nephritis (experimental glomerulonephritis), protein in urine. It is filed as in vivo, rat. As to conditions: po, 30 mg/kg. The method, then: […] […] As the index to effectiveness, the protein concentration in urine was determined. That is, when inflammation develops in the kidney, it causes damage to renal tubules, etc., and a resultant increase in protein concentration in urine.

Data set [2] concerns Masugi's nephritis. In words: Effect of TO-195 on Masugi's nephritis. Format: in vivo, rat. As to conditions: oral.
A further data set in a line: in vivo. As to conditions: rat. The method, then:
In the rat acute toxicity test, the LD50 was greater than 2,000 mg/kg (p.o. oral administration). The compound of Example 22 was tested in three groups.(five rats per group) of rats at dosages of (1) 2000 mg/kg, (2) 1000 mg/kg, and (3) 500 mg/kg; the compound was prepared in the form of a suspension in distilled water and administered orally.

A short description of data set [3]: monkey subacute toxicity test. Conditions: oral. Format: in vivo. The method, then:
The compound of Example 22 was tested in three groups (five monkeys per group) of monkeys at dosages of (1) 3 mg/kg/day, (2) 30 mg/kg/day, and (3) 300 mg/kg/day; the compound was administered orally (dose volume was 2 ml/kg) by gavage once a day for 13 weeks. Administration was followed by 20 ml sterile water per animal. Control monkeys received only the vehicle (sterile water for injection, U.S.P.) on the same regimen as the experimental groups. All doses were administered using a 18 French rubber catheter attached to a syringe.

Procedure for C1s: The anti-C1 esterase (C1r, C1s) activity was determined according to the method of Okamura et al. (Biochem. Biophys. Acta (1973), volume 295, pages 252-257). […] The values for C1s represent molar concentrations (IC50) of test compounds which inhibit 50% of the activity of C1s to hydrolyze ATEE (acetyltyrosine ethyl ester).

In general, inhibition refers to the share of the control response that was lost under treatment. Broadly, the LD50 is the dose at which mortality reaches 50%. For `Cl.N=C(N)c1ccc2cc(OC(=O)c3ccc(CNC(=O)CCCC(=O)O)o3)ccc2c1` [Example 22, 6-Amidino-2-naphthyl 5-(4-carboxybutyrylaminomethyl)furan-2-carboxylate hydrochloride], the “trypsin inhibition (in words)” value at trypsin was “inhibitor”. Besides, the IC50 on trypsin (hydrolysis of TAME, read-out: Try: molar concentration inhibiting 50% of enzyme activity (IC50)) was determined as 430 nM; at C1s (hydrolysis of ATEE, read-out: Cls: molar concentration inhibiting 50% of C1s activity (IC50)) it was 250 nM. Also, the “C1r inhibition (in words)” value on C1r is given as “inhibitor”. At C1r (at a concentration of 1 × 10^-5 M, read-out: Clr: percentage inhibition), the inhibition at 10 µM was 49%. On C1s, the “C1s inhibition (in words)” value is reported as “inhibitor”. The “Percentage inhibition (arthritis score)” value with adjuvant arthritis is 97.3%. In addition, in the data set on Masugi's nephritis [1], the “Protein concentration in urine” value stood at 3.0 ± 2.0 mg/mL. The “urinary protein excretion (in words)” value with Masugi's nephritis [2] (3, 10, or 30 mg/kg×2/day, from 2 days before through day 10 after nephrotoxin) is given as “significantly decreased urinary protein excretion”; in the data set on Masugi's nephritis [2] (twice a day from day 4 to day 10 after nephrotoxin) it was “significantly decreased urinary protein excretion”. The “Light microscopic examination of the glomeruli (in words)” value in the data set with Masugi's nephritis [2] (10 and 30 mg/kg×2/day, compared to control group) is on record as “significant anti-nephritic effect”. This molecule returned an LD50 at 336 h in the data set “in vivo” (in vivo, po) of over 2000 mg/kg. The “general conditions and survival (in words)” value in the data set “in vivo” (oral, up to 2,000 mg/kg, two weeks observation) is on record as “no changes were found”. Further, in data set [3] (13 weeks, up to 300 mg/kg/day), the “general conditions, biochemical examination, and survival (in words)” value is recorded as “no changes were found”. Also, the “toxicity (in words)” value in data set [3] (three months, even at 300 mg/kg) was “no toxicity was recognized”.
